Test results: PMC9072246 (Acta Pharmaceutica Sinica. B, 2021)
Where a name gives a salt, the structure may show the parent alone.

What was measured:
[1] = In vitro drug release by dialysis method; type: physicochemical; conditions: pH 7.4 PBS, after 3 h
[2] = In vivo pharmacokinetic after oral administration; set-up: species or system SD rats
[3] = Drug absorption in rat small intestine; type: in vivo; conditions: SD rats, intragastric 5 mg/kg DOX equivalent, 2 h, CLSM

COc1cccc2c1C(=O)c1c(O)c3c(c(O)c1C2=O)C[C@@](O)(C(=O)CO)C[C@@H]3O[C@H]1C[C@H](N)[C@H](O)[C@H](C)O1 [DOX, doxorubicin hydrochloride]
cumulative release amount of DOX [1]: 90% | Frel, relative bioavailability ([2]; SD rats, oral, 30 mg/kg DOX equivalent, relative to DOX): 100% | AUC ([2]; SD, rat, plasma, po, 30 mg/kg): 4000 ± 20 ng·h/mL | Cmax ([2]; SD, rat, plasma, po, 30 mg/kg): 160 ± 10 ng/mL | MRT ([2]; SD, rat, plasma, po, 30 mg/kg): 24.6 ± 0.34 h | Tmax ([2]; SD, rat, plasma, po, 30 mg/kg): 1 h | concentration at 1 h ([2]; SD, rat, plasma, po, 30 mg/kg): 160 ng/mL | concentration at 8 h ([2]; SD, rat, plasma, po, 30 mg/kg): 130 ng/mL | half-life ([2]; SD, rat, plasma, po, 30 mg/kg): 12.6 ± 0.58 h | DOX fluorescence signal in small intestine tissue [3]: almost no red fluorescence signal
